Experimental data reported in patent US10829796B2, “Bacteria identification and antimicrobial susceptibility test” (priority 2015, dated 2020).

Tested on: bacteria in clinical bovine mastitis milk samples
Assay: Combined bacteria identification and antimicrobial susceptibility test (colour of wells, MIC) on clinical bovine mastitis milk samples
Format: cell-based
Method: Clinical bovine mastitis milk samples were collected by a vet clinic in South Island, New Zealand. Samples were stored in the freezer for several months and shipped frozen to the testing facility. In this Example, the term “clinical” means that dairy cows had clinical symptoms of an udder infection e.g. cow behaved unusual, milk clots, swollen udder among other typical symptoms. Testing was executed in microwell plate comprising of 24 wells (3×8 wells).
In addition, 20 ul of clinical mastitis sample was added to each well with a laboratory pipette.
(§1) Abbreviations • 1. 80 ul GC+10 ul Tell: 80 ul Giolitti Cantoni base broth+10 ul Tellurite solution (1%); • 2. 80 ul TSB/Esc/Fer Cit: 80 ul Tryptic soy broth containing 0.25% Esculin and 0.125% Ammonium Ferric Citrate; • 3. 80 ul TSB/Esc/Fer Cit+10 ul Genta: 80 ul Tryptic soy broth containing 0.25% Esculin and 0.125% Ammonium Ferric Citrate+10 ul of Gentamycin solution 10 mg/ml; • 4. 80 ul McC/PR25: 80 ul MacConkey broth (single strength) containing 0.0125% phenol red; and • 5. 80 ul TSB/PR25: 80 ul Tryptic soy broth containing 0.0125% phenol red. Bacteria Identification
Columns A to C and rows 1 and 2 were used for bacteria identification. A1: coagulase positive Staph; A2: Staphylococci; B1: Strep group D; B2: Strep group D; C1: general enrichment media (gram+ and gram-bacteria); C2: coliform bacteria.
Column A3 to A8: serial dilution of benzyl penicillin as potassium. Column B3 to B8: serial dilution of ceftiofur as hydrochloride. Column C3 to C8: serial dilution of cloxacillin as sodium. Antibiotic concentrations are listed as free form ranging between 4 ug/ml to 0.05 ug/ml.
Minimum inhibitory substance concentration (MIC) is here defined as the concentration if a colour change occurs between two wells (one well remains red with drug concentration 1, the other one yellow with drug concentration 2, whereas drug concentration 1 is larger than drug concentration 2) then the MIC is the value of drug concentration 1.
Table 21 indicates the microwell plate configuration #1; Drugs: Benzylpenicillin as potassium; Cloxacillin as sodium; Ceftiofur as hydrochloride; Drug concentration in each well (A3 to C8) is based on 80 μl composition+10 μl drug solution+20 μl clinical mastitis milk sample and equivalent to listed drug concentration in μg/ml; 20 ul of clinical bovine mastitis milk sample was added to each well (A1 to C8).
In addition, each well received one drop of clinical sample from a transfer pipette which was on average about 35 mg. This was determined through weighing the well plate prior and after the addition of clinical mastitis samples. This weight was then divided by 24.
as §1, with “•” for “Abbreviations •”, “red.” for “red. Bacteria Identification”
Columns A to C and rows 1 and 2 were used for bacteria identification. A1: coagulase positive Staph; A2: Staphylococci; B1: Strep Group D; B2: -; C1: general enrichment media (gram+ and gram-); C2: coliform bacteria.
Column A3 to A8: serial dilution of benzyl penicillin as potassium. Drug concentrations given as free form ranging between 4 ug/ml to 0.05 ug/ml. Column B3 to B8: serial dilution of ceftiofur as hydrochloride. Drug concentrations given as free form ranging between 4 ug/ml to 0.05 ug/ml. Column C3 to C8: serial dilution of cloxacillin as sodium. Drug concentrations given as free form ranging between 4 ug/ml to 0.05 ug/ml.

CO/N=C(\C(=O)N[C@@H]1C(=O)N2C(C(=O)O)=C(CSC(=O)c3ccco3)CS[C@H]12)c1csc(N)n1 [ceftiofur]
orange: Colour of media in each well (Table 24, sample ID 2, 22 hours at 37° C., plate configuration #1, row 6 of serial dilution 4 ug/ml to 0.05 ug/ml)
1 µg/mL: MIC (clinical sample ID 2 (streptococci group D, also coagulase positive Staph), 37° C. for 22 hours, plate configuration #1) | MIC (clinical sample ID 3 (coliform bacteria), 37° C. for 22 hours, plate configuration #1) | MIC (clinical sample ID 4 (coagulase positive Staph), 37° C. for 22 hours, plate configuration #1) | MIC (clinical sample ID 7 (coagulase positive Staph), 37° C. for 23 hours, plate configuration #2)
0.5 µg/mL: MIC (clinical sample ID 1 (streptococci group D), 37° C. for 22 hours, plate configuration #1) | MIC (clinical sample ID 5 (streptococci group D), 37° C. for 23 hours, plate configuration #2) | MIC (clinical sample ID 8 (coagulase negative Staph and Streptococci group D), 37° C. for 23 hours, plate configuration #2)
yellow: Colour of media in each well (ID 6, T = 23h, 37° C., plate configuration #2, drug 0.05 μg/ml (Table 31)) | Colour of media in each well (ID 6, T = 23h, 37° C., plate configuration #2, drug 0.1 μg/ml (Table 31)) | Colour of media in each well (ID 6, T = 23h, 37° C., plate configuration #2, drug 0.5 μg/ml (Table 31)) | Colour of media in each well (ID 6, T = 23h, 37° C., plate configuration #2, drug 1 μg/ml (Table 31)) | Colour of media in each well (ID 6, T~7 h, 37° C., plate configuration #2, Table 35, drug 0.05 μg/ml) | Colour of media in each well (ID 6, T~7 h, 37° C., plate configuration #2, Table 35, drug 0.1 μg/ml) | Colour of media in each well (ID 6, T~7 h, 37° C., plate configuration #2, Table 35, drug 0.5 μg/ml) | Colour of media in each well (ID 6, T~11 h, 37° C., plate configuration #2, Table 35, drug 0.05 μg/ml) | Colour of media in each well (ID 6, T~11 h, 37° C., plate configuration #2, Table 35, drug 0.1 μg/ml) | Colour of media in each well (ID 6, T~11 h, 37° C., plate configuration #2, Table 35, drug 0.5 μg/ml) | Colour of media in each well (ID 6, T~23 h, 37° C., plate configuration #2, Table 35, drug 0.05 μg/ml) | Colour of media in each well (ID 6, T~23 h, 37° C., plate configuration #2, Table 35, drug 0.1 μg/ml) | Colour of media in each well (ID 6, T~23 h, 37° C., plate configuration #2, Table 35, drug 0.5 μg/ml) | Colour of media in each well (ID 6, T~23 h, 37° C., plate configuration #2, Table 35, drug 1 μg/ml) | Colour of media in each well (ID 7, T = 23h, 37° C., plate configuration #2, drug 0.05 μg/ml) | Colour of media in each well (ID 7, T = 23h, 37° C., plate configuration #2, drug 0.1 μg/ml) | Colour of media in each well (ID 7, T = 23h, 37° C., plate configuration #2, drug 0.5 μg/ml) | Colour of media in each well (ID 8, T = 23 h, 37° C., plate configuration #2, drug 0.05 μg/ml) | Colour of media in each well (ID 8, T = 23 h, 37° C., plate configuration #2, drug 0.1 μg/ml) | Colour of media in each well (Table 24, sample ID 2, 22 hours at 37° C., plate configuration #1, row 7 of serial dilution 4 ug/ml to 0.05 ug/ml) | Colour of media in each well (Table 24, sample ID 2, 22 hours at 37° C., plate configuration #1, row 8 of serial dilution 4 ug/ml to 0.05 ug/ml)
2 µg/mL: MIC (clinical sample ID 6 (coliform bacteria), 37° C. for 23 hours, plate configuration #2)
red: Colour of media in each well (ID 5 to 8, T = 0 h (prior incubation, reference), plate configuration #2, drug 2 μg/ml) | Colour of media in each well (ID 5 to 8, T = 0 h (prior incubation, reference), plate configuration #2, drug 4 μg/ml) | Colour of media in each well (ID 6, T = 23h, 37° C., plate configuration #2, drug 2 μg/ml (Table 31)) | Colour of media in each well (ID 6, T = 23h, 37° C., plate configuration #2, drug 4 μg/ml (Table 31)) | Colour of media in each well (ID 6, T~7 h, 37° C., plate configuration #2, Table 35, drug 1 μg/ml) | Colour of media in each well (ID 6, T~7 h, 37° C., plate configuration #2, Table 35, drug 2 μg/ml) | Colour of media in each well (ID 6, T~7 h, 37° C., plate configuration #2, Table 35, drug 4 μg/ml) | Colour of media in each well (ID 6, T~11 h, 37° C., plate configuration #2, Table 35, drug 1 μg/ml) | Colour of media in each well (ID 6, T~11 h, 37° C., plate configuration #2, Table 35, drug 2 μg/ml) | Colour of media in each well (ID 6, T~11 h, 37° C., plate configuration #2, Table 35, drug 4 μg/ml) | Colour of media in each well (ID 6, T~23 h, 37° C., plate configuration #2, Table 35, drug 2 μg/ml) | Colour of media in each well (ID 6, T~23 h, 37° C., plate configuration #2, Table 35, drug 4 μg/ml) | Colour of media in each well (ID 7, T = 23h, 37° C., plate configuration #2, drug 1 μg/ml) | Colour of media in each well (ID 7, T = 23h, 37° C., plate configuration #2, drug 2 μg/ml) | Colour of media in each well (ID 7, T = 23h, 37° C., plate configuration #2, drug 4 μg/ml) | Colour of media in each well (ID 8, T = 23 h, 37° C., plate configuration #2, drug 0.5 μg/ml) | Colour of media in each well (ID 8, T = 23 h, 37° C., plate configuration #2, drug 1 μg/ml) | Colour of media in each well (ID 8, T = 23 h, 37° C., plate configuration #2, drug 2 μg/ml) | Colour of media in each well (ID 8, T = 23 h, 37° C., plate configuration #2, drug 4 μg/ml) | Colour of media in each well (Table 24, sample ID 2, 22 hours at 37° C., plate configuration #1, row 3 of serial dilution 4 ug/ml to 0.05 ug/ml) | Colour of media in each well (Table 24, sample ID 2, 22 hours at 37° C., plate configuration #1, row 4 of serial dilution 4 ug/ml to 0.05 ug/ml) | Colour of media in each well (Table 24, sample ID 2, 22 hours at 37° C., plate configuration #1, row 5 of serial dilution 4 ug/ml to 0.05 ug/ml)
